Assays:
[1] = target: endogenous, cell-bound CD73 on SK-MEL-28 cells (Homo sapiens (Human), UniProt P21589); assay: Inhibition of endogenous, cell-bound CD73 enzyme activity in SK-MEL-28 cells (AMP, Malachite Green); type: cell-based; conditions: 100 μM AMP, 30 minutes at room temperature
Description: The day before the experiment, 5000 cells were plated per well in a 96-well plate. Cells were washed twice with 200 μL reaction buffer (20 mM HEPES, pH 7.4, 125 mM NaCl, 1 mM KCl, 2 mM MgCl2, 10 mM glucose) to remove residual inorganic phosphate. After washing, assays contained serial dilutions of test compounds and 100 μM of AMP in a total volume of 200 μL reaction buffer, with a final DMSO concentration ≤0.5%. After 30 minutes at room temperature, supernatant was removed from the cells. […] The concentration of inorganic phosphate was determined using a phosphate standard curve to determine IC50.

[2] = target: recombinant CD73 (Homo sapiens (Human), UniProt P21589); assay: Inhibition of the CD73 enzyme in vitro (soluble recombinant CD73, AMP, Malachite Green); type: biochemical; conditions: recombinant CD73 0.5 nM, AMP 50 μM, 30 minutes at room temperature
Description: The concentration of inorganic phosphate was determined using a phosphate standard curve.

recombinant CD73, sequence (P21589 27-547): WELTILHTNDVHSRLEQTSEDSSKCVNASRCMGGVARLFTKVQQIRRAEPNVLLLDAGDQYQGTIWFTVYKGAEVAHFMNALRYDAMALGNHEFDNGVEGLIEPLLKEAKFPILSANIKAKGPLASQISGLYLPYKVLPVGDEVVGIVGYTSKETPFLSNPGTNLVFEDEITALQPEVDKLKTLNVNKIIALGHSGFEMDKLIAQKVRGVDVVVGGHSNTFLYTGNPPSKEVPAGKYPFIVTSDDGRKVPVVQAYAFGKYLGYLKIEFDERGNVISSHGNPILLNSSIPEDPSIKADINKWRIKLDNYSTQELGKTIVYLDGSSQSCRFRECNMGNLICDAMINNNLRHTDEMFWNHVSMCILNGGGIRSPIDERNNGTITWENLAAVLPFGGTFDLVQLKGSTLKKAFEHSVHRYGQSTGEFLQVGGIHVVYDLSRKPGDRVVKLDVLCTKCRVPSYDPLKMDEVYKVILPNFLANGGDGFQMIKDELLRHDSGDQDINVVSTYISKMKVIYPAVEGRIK
endogenous, cell-bound CD73 on SK-MEL-28 cells, sequence (P21589 27-574): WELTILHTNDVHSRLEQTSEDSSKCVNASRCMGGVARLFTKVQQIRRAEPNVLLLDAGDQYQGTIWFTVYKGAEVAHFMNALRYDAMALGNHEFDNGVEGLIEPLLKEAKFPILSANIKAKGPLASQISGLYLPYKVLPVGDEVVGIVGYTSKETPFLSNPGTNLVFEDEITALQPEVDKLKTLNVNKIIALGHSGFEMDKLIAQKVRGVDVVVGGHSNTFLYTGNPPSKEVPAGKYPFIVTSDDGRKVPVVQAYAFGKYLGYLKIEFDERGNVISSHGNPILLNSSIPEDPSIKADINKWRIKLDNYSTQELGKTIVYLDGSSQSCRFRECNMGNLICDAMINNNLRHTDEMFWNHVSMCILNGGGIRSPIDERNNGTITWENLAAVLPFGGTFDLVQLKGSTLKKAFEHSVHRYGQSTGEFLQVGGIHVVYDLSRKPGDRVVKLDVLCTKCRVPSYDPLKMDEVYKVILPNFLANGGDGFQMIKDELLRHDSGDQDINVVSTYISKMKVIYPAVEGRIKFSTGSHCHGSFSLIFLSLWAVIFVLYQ

IC50 [1]: 827 nM
IC50 [2]: 258 nM
Structure (SMILES): Nc1nc(Cl)nc2c1ncn2[C@@H]1O[C@H](COC(Cc2ccc(Cl)c(Cl)c2)(C(=O)O)C(=O)O)[C@@H](O)[C@@H]1F [compound 128]

Source: patent US11034715B2, “Ectonucleotidase inhibitors and methods of use thereof” (Calithera Biosciences, Inc., priority 2016, dated 2021)
